The results in this text go back to patent US5015578A, “BMY-41950 antitumor antibiotic” (Bristol-Myers Squibb Company, priority 1990, dated 1991).

≈ marks a conversion by molar mass, not a printed value.

Data set [1] deals with Staphylococcus aureus A9537. Kind of data set: MIC vs. Staphylococcus aureus A9537, in vitro antimicrobial screening. The note with it: read-out: MIC (Minimum Inhibitory Concentration). It counts as cell-based.
Data set [2] deals with Enterococcus faecalis A20688. Kind of data set: MIC vs. Enterococcus faecalis A20688, in vitro antimicrobial screening. The class given is cell-based. The note with it: read-out: MIC (Minimum Inhibitory Concentration).
In data set [3] the test system is B16-F10 (murine melanoma). Kind of data set: In vitro cytotoxicity, B16-F10 cells (crystal violet). The class given is cell-based. Conditions: 72 hours, 50% cell death or growth inhibition; for IC50: Mus musculus, B16-F10, read-out: In Vitro Antitumor Activity IC50, B16-F10. The protocol: (§1) BMY-41950 was tested for in vitro cytotoxic activity against a murine and a human tumor cell line. In vivo it was tested for activity against a murine leukemia tumor model. In vitro, mitomycin C and cisplatin were used as the reference compounds, while etoposide (VP-16) was used as the in vivo reference.
(§2) B16-F10 (murine melanoma) and HCT-116 (human colon cancer cell clone) cells were cultured in Complete McCoys Media. The media consists of 420 ml McCoys 5A media plus 500 mg sodium bicarbonate in 6 ml water, 6.56 mg L-serine. 1.5 mg L-asparagine and 82.4 mg sodium pyruvate in 2 ml water. 6.25 ml essential amino acids (50X, Gibco), 3.0 ml non-essential amino acids (100X, Gibco), 3 ml L-glutamine (200MM), 3 ml MEM vitamins (Gibco), 6.25 ml penicillin/streptomycin (Gibco) and 50 ml of heat-inactivated defined fetal calf serum.
(§3) The two cell lines are harvested during logarithmic phase cell growth and 3600 cells in 150 microliter media were placed in each well of a 96 well microtiter plate. After 24 hours incubation at 37 degrees Celsius in a 95% air/5% carbon dioxide humidified incubator to allow the cells to attach to the plate, fifty microliters of sample/reference drug is added to 11 of 12 of the top row of wells while 50 microliters of media is added to the 12th. The drugs/media are serially diluted (4 fold dilutions) down the 8 wells of the plate. The cells in the presence of drug/media are then incubated for 72 hours. After fixing with 10% formalin, cells killed by the drug were washed off the plate while those surviving cells are stained with 0.0075% crystal violet. After drying, the stain is solubilized with 10% ethanol and 1% acetic acid, the developed plate quantitated on a Dynatech MR 600 plate reader and the IC50 values (drug concentration at which 50% cell death or growth inhibition occurs) calculated.

The test system of data set [4] is HCT-116 (human colon cancer cell clone). The data set can be described thus: In vitro cytotoxicity, HCT-116 cells (crystal violet). It counts as cell-based. Conditions: 72 hours, 50% cell death or growth inhibition; for IC50: Homo sapiens, HCT-116, read-out: In Vitro Antitumor Activity IC50, HCT-116. The protocol: as §1, §2, §3
Data set [5] deals with lymphocytic leukemia P388 cells. Kind of data set: In vivo activity in P388 murine leukemia model. The note with it: days 1-5. More on the design: species or system murine (female CDF1 mice). The protocol:
as §1
In vivo activity of BMY-41950 was determined in a murine leukemia tumor system. Female CDF1 mice were intraperitoneally inoculated with 0.5 ml of diluted ascitic fluid containing 10^6 lymphocytic leukemia P388 cells. Ten mice were untreated and the median survival time of this group was 10 days. Three groups of 4 mice each were treated with BMY-41950 on days 1, 2, 3, 4 and 5 post tumor implant. The drug was administered ip after being initially dissolved in DMSO, Tween 80 and buffered saline. […] Thus the % T/C (survival time of drug treated/survival time of untreated controls×100) was 130%. The criteria for antitumor activity in this murine tumor test is a % T/C of 125 or greater. Thus. BMY-41950 fulfilled the criteria for antitumor activity in the P388 murine leukemia antitumor model.

A further data set in a line: Solubility. The class given is physicochemical.

Turning to `CNC1CC2OC(C)(C1OC)n1c3ccccc3c3c4c(c5c6ccccc6n2c5c31)C(=O)NC4=O` (centres unmarked) [BMY-41950, 7-oxostaurosporine], the results for the MIC in data set [1] and in data set [2] were 6.25 µg/mL (≈ 13 µM) and 12.5 µg/mL (≈ 26 µM), respectively. Besides, the concentration for half-maximal inhibition (IC50) – broadly, the midpoint of a concentration-inhibition curve – in data set [3] is 0.98 µg/mL (≈ 2.04 µM); in data set [4] it was 0.24 µg/mL (≈ 0.499 µM). The “% T/C (survival time of drug treated/survival time of untreated controls×100)” value in data set [5] (2 mg/kg/day ip, criterion for activity 125 or greater) came to 130%. Moreover, the median survival time in data set [5] (2 mg/kg/day ip, untreated controls 10 days) stood at 13 days. In addition, in data set [5] (18 and 6 mg/kg/day ip), the “drug-induced toxicity / deaths” value was “suffered drug-induced toxicity and all mice died prior to day 7”. The “Solubility in CHCl3-CH3OH” value in “Solubility” (CHCl3-CH3OH (2:1 v/v)) is listed as “soluble”. Besides, the “Solubility in dimethylsulfoxide (DMSO)” value in the data set “Solubility” (dimethylsulfoxide (DMSO)) is “soluble”. Moreover, the “Solubility in tetrahydrofuran (THF)” value in the data set “Solubility” (tetrahydrofuran (THF)) was “soluble”.

For the compound `N.N.[Cl][Pt][Cl]` [Cisplatin], in data set [3], the “In Vitro Antitumor Activity IC50, B16-F10” value was 3.9 µg/mL. In addition, the “In Vitro Antitumor Activity IC50, HCT-116” value in data set [4] is 15.6 µg/mL.

Regarding `CO[C@@]12[C@H](COC(N)=O)C3=C(C(=O)C(C)=C(N)C3=O)N1C[C@@H]1N[C@@H]12` [Mitomycin C], the IC50 in data set [3] and in data set [4] was 0.98 µg/mL (≈ 2.93 µM) throughout.
